Molecules are shown by their SMILES. *1 amine or outer side, *2 acyl side, *3 side chain or, on linkers, in order; H or OH if unused. Where a SMILES comes first, the peptide text is derived from it. Side-chain parts run from the residue outwards. [ ]: non-standard residue; d: D form. The star is where a group is joined. C20 diacid = O=C(O)CCCCCCCCCCCCCCCCCCC(=O)*; C18 diacid = O=C(O)CCCCCCCCCCCCCCCCC(=O)*; αMePhe(2-F) = C[C@](N)(Cc1ccccc1F)C(=O)O; γGlu = O=C(O)[C@H](CCC(=O)[*:2])N[*:1]; αMeF = C[C@](N)(Cc1ccccc1)C(=O)O; 4Pal = N[C@@H](Cc1ccncc1)C(=O)O; αMeL = CC(C)C[C@](C)(N)C(=O)O; AEEA = NCCOCCOCC(=O)O; Aib = CC(C)(N)C(=O)O

Our source for the Ki values is patent US12723063B2, “GIPR-agonist compounds” (Eli Lilly and Company, priority 2019, dated 2026).

T1 sequence (P43220 24-463): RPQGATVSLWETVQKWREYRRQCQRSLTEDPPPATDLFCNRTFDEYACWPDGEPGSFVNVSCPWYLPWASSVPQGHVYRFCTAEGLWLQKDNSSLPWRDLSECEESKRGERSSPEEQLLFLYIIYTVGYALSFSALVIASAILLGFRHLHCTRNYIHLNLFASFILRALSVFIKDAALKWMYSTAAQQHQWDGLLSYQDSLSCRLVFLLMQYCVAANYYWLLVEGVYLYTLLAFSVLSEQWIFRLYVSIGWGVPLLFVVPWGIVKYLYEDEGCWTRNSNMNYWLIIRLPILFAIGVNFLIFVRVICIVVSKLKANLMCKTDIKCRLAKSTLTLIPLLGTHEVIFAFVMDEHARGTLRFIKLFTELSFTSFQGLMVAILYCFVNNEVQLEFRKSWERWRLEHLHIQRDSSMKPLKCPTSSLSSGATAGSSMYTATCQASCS

This experiment addresses T1, human GLP-1R (Homo sapiens, UniProt P43220).
T1 construct: expressed in transfected cells; crude membranes
The experiment can be described thus: [125I]-GLP-1 binding, SPA with WGA beads, 0.1% bacitracin. Particulars: geometric mean, read-out: hGLP1R Ki. The method, boiled down: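 Binding buffer was 25 mM HEPES pH 7.4 with 2.5 mM CaCl2, 1 mM MgCl2, 0.1% (w/v) bacitracin, 0.003% Tween-20 and EDTA-free protease inhibitors. Four-parameter regression gave IC50, converted to Ki (geometric mean, SEM, n independent days).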
As for `CC[C@H](C)[C@H](NC(=O)[C@H](CO)NC(=O)[C@H](Cc1ccc(O)cc1)NC(=O)[C@H](CC(=O)O)NC(=O)[C@H](CO)NC(=O)[C@@H](NC(=O)[C@](C)(Cc1ccccc1)NC(=O)[C@@H](NC(=O)CNC(=O)[C@H](CCC(=O)O)NC(=O)C(C)(C)NC(=O)[C@@H](N)Cc1ccc(O)cc1)[C@@H](C)O)[C@@H](C)CC)C(=O)N[C@@H](C)C(=O)N[C@@H](CC(C)C)C(=O)N[C@@H](CC(=O)O)C(=O)N[C@@H](CCCCN)C(=O)N[C@@H](CCCCNC(=O)COCCOCCNC(=O)COCCOCCNC(=O)CC[C@H](NC(=O)CCCCCCCCCCCCCCCCCCC(=O)O)C(=O)O)C(=O)N[C@@H](Cc1c[nH]cn1)C(=O)N[C@@H](CCC(N)=O)C(=O)NC(C)(C)C(=O)N[C@@H](CC(=O)O)C(=O)N[C@@H](Cc1ccccc1)C(=O)N[C@H](C(=O)N[C@@H](CCC(=O)O)C(=O)N[C@@H](Cc1ccncc1)C(=O)N[C@@H](CC(C)C)C(=O)N[C@@H](CC(C)C)C(=O)N[C@@H](CCC(=O)O)C(=O)N[C@@H](CCC(N)=O)C(=O)NCC(=O)N1CCC[C@H]1C(=O)N[C@@H](CO)C(=O)N[C@@H](CO)C(=O)NCC(=O)N[C@@H](C)C(=O)N1CCC[C@H]1C(=O)N1CCC[C@H]1C(=O)N1CCC[C@H]1C(=O)N[C@@H](CO)C(N)=O)C(C)C` [Example 42] (H-Y[Aib]EGT[αMeF]ISDYSIALDKK([AEEA-AEEA-γGlu-C20 diacid])HQ[Aib]DFVE[4Pal]LLEQGPSSGAPPPS-NH2), the Ki amounted to 563 nM.

Turning to `CC[C@H](C)[C@H](NC(=O)[C@H](CO)NC(=O)[C@H](Cc1ccc(O)cc1)NC(=O)[C@H](CC(=O)O)NC(=O)[C@H](CO)NC(=O)[C@@H](NC(=O)[C@](C)(Cc1ccccc1F)NC(=O)[C@@H](NC(=O)CNC(=O)[C@H](CCC(=O)O)NC(=O)[C@H](C)NC(=O)[C@@H](Cc1ccc(O)cc1)NC(C)=O)[C@@H](C)O)[C@@H](C)CC)C(=O)N[C@@H](C)C(=O)N[C@@H](CC(C)C)C(=O)N[C@@H](CC(=O)O)C(=O)N[C@@H](CCCCN)C(=O)N[C@@H](CCCCNC(=O)COCCOCCNC(=O)COCCOCCNC(=O)CC[C@H](NC(=O)CCCCCCCCCCCCCCCCCCC(=O)O)C(=O)O)C(=O)N[C@@H](Cc1c[nH]cn1)C(=O)N[C@@H](CCC(N)=O)C(=O)NC(C)(C)C(=O)N[C@@H](CCC(=O)O)C(=O)N[C@@H](Cc1ccccc1)C(=O)N[C@H](C(=O)N[C@@H](CC(N)=O)C(=O)N[C@@H](Cc1ccc(O)cc1)C(=O)N[C@@H](CC(C)C)C(=O)N[C@@H](CC(C)C)C(=O)N[C@@H](CCC(=O)O)C(=O)NCC(=O)NCC(=O)N1CCC[C@H]1C(=O)N[C@@H](CO)C(=O)N[C@@H](CO)C(=O)NCC(=O)N[C@@H](C)C(=O)N1CCC[C@H]1C(=O)N1CCC[C@H]1C(=O)N1CCC[C@H]1C(=O)N[C@@H](CO)C(N)=O)C(C)C` [Example 33] (Ac-[dY]AEGT[αMePhe(2-F)]ISDYSIALDKK([AEEA-AEEA-γGlu-C20 diacid])HQ[Aib]EFVNYLLEGGPSSGAPPPS-NH2), the Ki came out at 31.2 nM.

Consider `CC[C@H](C)[C@H](NC(=O)[C@H](CO)NC(=O)[C@H](Cc1ccc(O)cc1)NC(=O)[C@H](CC(=O)O)NC(=O)[C@H](CO)NC(=O)[C@@H](NC(=O)[C@](C)(Cc1ccccc1)NC(=O)[C@@H](NC(=O)CNC(=O)[C@H](CCC(=O)O)NC(=O)C(C)(C)NC(=O)[C@@H](N)Cc1ccc(O)cc1)[C@@H](C)O)[C@@H](C)CC)C(=O)N[C@@H](C)C(=O)N[C@@H](CC(C)C)C(=O)N[C@@H](CC(=O)O)C(=O)N[C@@H](CCCCN)C(=O)N[C@@H](CCCCNC(=O)COCCOCCNC(=O)COCCOCCNC(=O)CC[C@H](NC(=O)CCCCCCCCCCCCCCCCCCC(=O)O)C(=O)O)C(=O)N[C@@H](Cc1c[nH]cn1)C(=O)N[C@@H](CCC(N)=O)C(=O)NC(C)(C)C(=O)N[C@@H](CC(=O)O)C(=O)N[C@@H](Cc1ccccc1)C(=O)N[C@H](C(=O)N[C@@H](CCC(=O)O)C(=O)N[C@@H](Cc1ccncc1)C(=O)N[C@@H](CC(C)C)C(=O)N[C@@H](CC(C)C)C(=O)N[C@@H](CCC(=O)O)C(=O)NCC(=O)NCC(=O)N1CCC[C@H]1C(=O)N[C@@H](CO)C(=O)N[C@@H](CO)C(=O)NCC(=O)N[C@@H](C)C(=O)N1CCC[C@H]1C(=O)N1CCC[C@H]1C(=O)N1CCC[C@H]1C(=O)N[C@@H](CO)C(N)=O)C(C)C` [Example 44] (H-Y[Aib]EGT[αMeF]ISDYSIALDKK([AEEA-AEEA-γGlu-C20 diacid])HQ[Aib]DFVE[4Pal]LLEGGPSSGAPPPS-NH2), for which the inhibition constant (Ki) was 209 nM.

Take `CC[C@H](C)[C@H](NC(=O)[C@H](Cc1ccccc1)NC(=O)[C@@H](NC(=O)CNC(=O)[C@H](CCC(=O)O)NC(=O)C(C)(C)NC(=O)[C@@H](N)Cc1ccc(O)cc1)[C@@H](C)O)C(=O)N[C@@H](CO)C(=O)N[C@@H](CC(=O)O)C(=O)N[C@@H](Cc1ccc(O)cc1)C(=O)N[C@@H](CO)C(=O)N[C@H](C(=O)N[C@@](C)(CC(C)C)C(=O)N[C@@H](CC(C)C)C(=O)N[C@@H](CC(=O)O)C(=O)N[C@@H](CCCCN)C(=O)N[C@@H](CCCCNC(=O)COCCOCCNC(=O)COCCOCCNC(=O)CC[C@H](NC(=O)CCCCCCCCCCCCCCCCCCC(=O)O)C(=O)O)C(=O)N[C@@H](Cc1c[nH]cn1)C(=O)N[C@@H](CCC(N)=O)C(=O)NC(C)(C)C(=O)N[C@@H](CCC(=O)O)C(=O)N[C@@H](Cc1ccccc1)C(=O)N[C@H](C(=O)N[C@@H](CCC(=O)O)C(=O)N[C@@H](Cc1ccc(O)cc1)C(=O)N[C@@H](CC(C)C)C(=O)N[C@@H](CC(C)C)C(=O)N[C@@H](CCC(=O)O)C(=O)N[C@@H](CCC(N)=O)C(=O)NCC(=O)N1CCC[C@H]1C(=O)N[C@@H](CO)C(=O)N[C@@H](CO)C(=O)NCC(=O)N[C@@H](C)C(=O)N1CCC[C@H]1C(=O)N1CCC[C@H]1C(=O)N1CCC[C@H]1C(=O)N[C@@H](CO)C(N)=O)C(C)C)[C@@H](C)CC` [Example 63] (H-Y[Aib]EGTFISDYSI[αMeL]LDKK([AEEA-AEEA-γGlu-C20 diacid])HQ[Aib]EFVEYLLEQGPSSGAPPPS-NH2): the Ki was 327 nM.

For `CC[C@H](C)[C@H](NC(=O)[C@H](CO)NC(=O)[C@H](Cc1ccc(O)cc1)NC(=O)[C@H](CC(=O)O)NC(=O)[C@H](CO)NC(=O)[C@@H](NC(=O)[C@H](CC(C)C)NC(=O)[C@@H](NC(=O)CNC(=O)[C@H](CCC(=O)O)NC(=O)[C@@H](C)NC(=O)[C@@H](N)Cc1ccc(O)cc1)[C@@H](C)O)[C@@H](C)CC)C(=O)N[C@@H](CC(C)C)C(=O)N[C@@H](CC(C)C)C(=O)N[C@@H](CC(=O)O)C(=O)N[C@@H](CCCCN)C(=O)N[C@@H](CCCCNC(=O)COCCOCCNC(=O)COCCOCCNC(=O)CC[C@H](NC(=O)CCCCCCCCCCCCCCCCC(=O)O)C(=O)O)C(=O)N[C@@H](C)C(=O)N[C@@H](CCC(N)=O)C(=O)NC(C)(C)C(=O)N[C@@H](CC(=O)O)C(=O)N[C@@H](Cc1ccccc1)C(=O)N[C@H](C(=O)N[C@@H](CC(N)=O)C(=O)N[C@@H](Cc1c[nH]c2ccccc12)C(=O)N[C@@H](CC(C)C)C(=O)N[C@@H](CC(C)C)C(=O)N[C@@H](C)C(=O)N[C@@H](CCC(N)=O)C(=O)NCC(=O)N1CCC[C@H]1C(=O)N[C@@H](CO)C(=O)N[C@@H](CO)C(=O)NCC(=O)N[C@@H](C)C(=O)N1CCC[C@H]1C(=O)N1CCC[C@H]1C(=O)N1CCC[C@H]1C(=O)N[C@@H](CO)C(N)=O)C(C)C` [Example 32] (H-Y[dA]EGTLISDYSILLDKK([AEEA-AEEA-γGlu-C18 diacid])AQ[Aib]DFVNWLLAQGPSSGAPPPS-NH2), the Ki worked out at 85.2 nM.

Regarding `CC[C@H](C)[C@H](NC(=O)[C@H](CO)NC(=O)[C@H](Cc1ccc(O)cc1)NC(=O)[C@H](CC(=O)O)NC(=O)[C@H](CO)NC(=O)[C@@H](NC(=O)[C@](C)(Cc1ccccc1)NC(=O)[C@@H](NC(=O)CNC(=O)[C@H](CCC(=O)O)NC(=O)C(C)(C)NC(=O)[C@@H](N)Cc1ccc(O)cc1)[C@@H](C)O)[C@@H](C)CC)C(=O)N[C@@](C)(CC(C)C)C(=O)N[C@@H](CC(C)C)C(=O)N[C@@H](CC(=O)O)C(=O)N[C@@H](CCCCN)C(=O)N[C@@H](CCCCNC(=O)COCCOCCNC(=O)COCCOCCNC(=O)CC[C@H](NC(=O)CCCCCCCCCCCCCCCCCCC(=O)O)C(=O)O)C(=O)N[C@@H](Cc1c[nH]cn1)C(=O)N[C@@H](CCC(N)=O)C(=O)NC(C)(C)C(=O)N[C@@H](CC(=O)O)C(=O)N[C@@H](Cc1ccccc1)C(=O)N[C@H](C(=O)N[C@@H](CCC(=O)O)C(=O)N[C@@H](Cc1ccncc1)C(=O)N[C@@H](CC(C)C)C(=O)N[C@@H](CC(C)C)C(=O)N[C@@H](C)C(=O)NCC(=O)NCC(=O)N1CCC[C@H]1C(=O)N[C@@H](CO)C(=O)N[C@@H](CO)C(=O)NCC(=O)N[C@@H](C)C(=O)N1CCC[C@H]1C(=O)N1CCC[C@H]1C(=O)N1CCC[C@H]1C(=O)N[C@@H](CO)C(N)=O)C(C)C` [Example 50] (H-Y[Aib]EGT[αMeF]ISDYSI[αMeL]LDKK([AEEA-AEEA-γGlu-C20 diacid])HQ[Aib]DFVE[4Pal]LLAGGPSSGAPPPS-NH2), the Ki turned out to be 34.9 nM.

As for `CC[C@H](C)[C@H](NC(=O)[C@H](Cc1ccccc1)NC(=O)[C@@H](NC(=O)CNC(=O)[C@H](CCC(=O)O)NC(=O)C(C)(C)NC(=O)[C@@H](N)Cc1ccc(O)cc1)[C@@H](C)O)C(=O)N[C@@H](CO)C(=O)N[C@@H](CC(=O)O)C(=O)N[C@@H](Cc1ccc(O)cc1)C(=O)N[C@@H](CO)C(=O)N[C@H](C(=O)N[C@@](C)(CC(C)C)C(=O)N[C@@H](CC(C)C)C(=O)N[C@@H](CC(=O)O)C(=O)N[C@@H](CCCCN)C(=O)N[C@@H](CCCCNC(=O)COCCOCCNC(=O)COCCOCCNC(=O)CC[C@H](NC(=O)CCCCCCCCCCCCCCCCCCC(=O)O)C(=O)O)C(=O)N[C@@H](Cc1c[nH]cn1)C(=O)N[C@@H](CCC(N)=O)C(=O)NC(C)(C)C(=O)N[C@@H](CC(=O)O)C(=O)N[C@@H](Cc1ccccc1)C(=O)N[C@H](C(=O)N[C@@H](CCC(=O)O)C(=O)N[C@@H](Cc1ccncc1)C(=O)N[C@@H](CC(C)C)C(=O)N[C@@H](CC(C)C)C(=O)N[C@@H](C)C(=O)NCC(=O)NCC(=O)N1CCC[C@H]1C(=O)N[C@@H](CO)C(=O)N[C@@H](CO)C(=O)NCC(=O)N[C@@H](C)C(=O)N1CCC[C@H]1C(=O)N1CCC[C@H]1C(=O)N1CCC[C@H]1C(=O)N[C@@H](CO)C(N)=O)C(C)C)[C@@H](C)CC` [Example 48], the Ki amounted to 211 nM.
